Reference: publication PMC10065799, “High-throughput profiling of sequence recognition by tyrosine kinases and SH2 domains using bacterial peptide display” (eLife, 2023)

Experiments:
[1] = molecular target: T1, c-Abl kinase domain (Mus musculus, UniProt P00520); assay: ADP-Quest continuous fluorimetric kinase assay (Michaelis-Menten parameters and initial rates); type: biochemical; details: c-Abl kinase domain 10 nM, 100 μM ATP, 37 °C, three to five replicates, error = standard error of global Michaelis-Menten fit
T1 sequence (P00520 242-493 limits assumed): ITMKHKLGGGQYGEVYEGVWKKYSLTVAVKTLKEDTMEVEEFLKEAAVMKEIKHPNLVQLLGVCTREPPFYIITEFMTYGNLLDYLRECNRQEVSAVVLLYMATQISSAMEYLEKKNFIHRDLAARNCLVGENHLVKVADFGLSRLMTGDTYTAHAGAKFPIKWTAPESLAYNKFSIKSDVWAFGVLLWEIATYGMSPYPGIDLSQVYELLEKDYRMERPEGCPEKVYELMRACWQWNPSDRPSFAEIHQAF
Text: (§1) A fluorescence-based assay from Eurofins (ADP Quest) was used to measure the Michaelis-Menten kinetic parameters for phosphorylation of the consensus peptides by purified tyrosine kinase domains. In this assay, ADP production as a result of kinase activity is coupled to the production of resorufin, a fluorophore that emits signal at 590 nm. For all experiments, the assay reactions were set up as described in the provided assay kit protocol, in a 384 well plate format. The peptide solutions were serially diluted in 100 mM Tris, pH 8.0, and the kinases were diluted to 50 nM in buffer (10 mM HEPES, 100 mM NaCl, 1 mM TCEP, 5 mM MgCl2, 10% (v/v) glycerol). The final reaction mixtures contained 10 nM of kinase with 100 μM of ATP. Reactions were initiated with the addition of 1 mM ATP into a 50 μL reaction mixture for a final concentration of 100 μM ATP. Phosphorylation reaction progress was monitored by measuring fluorescence at excitation 530 nm and emission 590 nm every 2 min at 37 °C on a plate reader (BioTek Synergy Neo 2). The fluorescence units (RFU) were converted to μM ADP by comparison to a standard curve, and the initial rates were extracted from the linear regime of the reaction progress curves. Initial rates were also measured for samples containing each kinase but lacking a peptide substrate, to account for background ATP hydrolysis. This background rate was subtracted from the rates measured in the presence of peptide. The subtracted rates were plotted as a function of substrate concentration and fit to the Michaelis-Menten equation to extract kcat and KM values.

[2] = molecular target: T2, c-Src kinase domain (Homo sapiens, UniProt P12931); assay: as above; type: biochemical; details: c-Src kinase domain 10 nM, 100 μM ATP, 37 °C, three to five replicates, error = standard error of global Michaelis-Menten fit
Text: as §1

[3] = system: EPHB2 kinase domain; assay: ADP-Quest continuous fluorimetric kinase assay (initial rates of consensus peptides); type: biochemical, human; details: peptide 100 μM, kinase 10–50 nM; Figure 2C
Text: as §1, with “Reactions were initiated with the addition of 1 mM ATP into a 50 μL reaction mixture for a final concentration of 100 μM ATP.” left out, “The subtracted rates were plotted as a function of substrate concentration and fit to the Michaelis-Menten equation to extract kcat and KM values.” left out

[4] = system: Fer kinase domain; assay: pTyr-Var library bacterial peptide display kinase screen (enrichment scores); type: biochemical, mouse;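 on Fer hit?: Hit requires p below 0.05 and at least twofold variant vs reference change plus filters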;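 on screen: log2 fold change in enrichment of variant over reference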
[5] = system: Fyn kinase domain; assay: as above; type: biochemical, human;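 on Fyn hit?: Hit requires p below 0.05 and at least twofold variant vs reference change plus filters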
[6] = system: Grb2 SH2 domain; assay: pTyr-Var library SH2 domain screen with SH2-dynabeads (enrichment scores)
[7] = system: Jak2; assay: pTyr-Var library bacterial peptide display kinase screen (enrichment scores); type: biochemical, human
[8] = system: AncSZ kinase domain; assay: as above; type: biochemical
[9] = system: EPHB1 kinase domain; assay: as above; type: biochemical, human;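 on screen: log2 fold change in enrichment of variant over reference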
[10] = system: FGFR1 kinase domain; assay: as above; type: biochemical, human
[11] = system: Hck kinase domain; assay: as above; type: biochemical, human
[12] = system: MERTK kinase domain; assay: as above; type: biochemical, human
[13] = molecular target: c-Src SH2 domain (Homo sapiens, UniProt P12931); assay: pTyr-Var library SH2 domain screen with SH2-dynabeads (enrichment scores); details: sheet c-Src
[14] = system: SHP2 C-SH2 domain; assay: as above
[15] = molecular target: T1, c-Abl kinase domain; assay: pTyr-Var library bacterial peptide display kinase screen (enrichment scores); type: biochemical;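 on AncSZ hit?: Hit requires p below 0.05 and at least twofold variant vs reference change plus filters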;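 on Fyn hit?: Hit requires p below 0.05 and at least twofold variant vs reference change plus filters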;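 on screen: log2 fold change in enrichment of variant over reference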
[16] = molecular target: T2, c-Src kinase domain; assay: as above; type: biochemical
[17] = system: Fes; assay: as above; type: biochemical
[18] = system: 4G10 Platinum pan-phosphotyrosine antibody; assay: Phosphorylated pTyr-Var library selection with biotinylated pan-phosphotyrosine antibody; type: binding, mouse; details: enrichment score, sheet SH2-vs-peptide
[19] = system: FGFR3 kinase domain; assay: pTyr-Var library bacterial peptide display kinase screen (enrichment scores); type: biochemical, human
[20] = system: EPHB2 kinase domain; assay: as above; type: biochemical, human
[21] = mean of log2 of enrichment over R1-R4
[22] = pTyr-Var library, enrichment score, replicate 1
[23] = pTyr-Var library, enrichment score, replicate 3
[24] = pTyr-Var library, enrichment score, replicate 4
[25] = variant versus reference peptide
[26] = variant versus reference peptide, significant hit TRUE/FALSE
[27] = mean of log2(variant) minus mean of log2(reference)
[28] = mean of log2 enrichment of variant peptide, n = 4
[29] = pTyr-Var library, variant peptide enrichment, mean of n = 4
[30] = mean of log2 enrichment of variant peptide, n = 5
[31] = pTyr-Var library, variant peptide enrichment, mean of n = 5

Ac-GPDEPIYAVPPIKKKG-NH2 [Abl Consensus, c-Abl consensus substrate peptide from X5-Y-X5 screen]
Km [1]: 6 ± 2 µM | kcat [1]: 3.0±0.2 s^–1 | Km [2]: 159 ± 31 µM | kcat [2]: 2.0±0.2 s^–1 | phosphorylation of consensus peptide by EPHB2 (initial rate relative to cognate consensus) [3]: efficiently phosphorylated

LHVGFYESDVM [A2M_Y708_R704H]
Fer mean of log2(enrichment) [4, 21]: 0.8907 | Fer enrich. R1 [4, 22]: 2.223 | Fer enrich. R3 [4, 23]: 2.063 | Fer enrich. R4 [4, 24]: 1.22 | Screen ([4]; sheet "Fer", value of the variant peptide against its reference peptide in the pTyr-Var library screen with Fer): 0.2498 | Fer difference (mean log2 variant - mean log2 reference) [4, 25]: 0.2498 | Fer hit? [4, 26]: FALSE | Fyn mean of log2(enrichment) [5, 21]: -0.6247 | Fyn enrich. R1 [5, 22]: 1.119 | Fyn enrich. R3 [5, 23]: 0.683 | Fyn enrich. R4 [5, 24]: 0.4956 | Fyn difference (mean log2 variant - mean log2 reference) [5, 25]: -0.4761 | Fyn hit? [5, 26]: FALSE | difference ([6]; Grb2 SH2, mean of log2(variant) minus mean of log2(reference)): 0.0213 | mean of log2(variant) ([6]; Grb2 SH2, mean of log2 enrichment of variant, R1-R3): -0.08185 | hit? ([6]; Grb2 SH2, variant versus reference significant hit call): FALSE | var. mean ([6]; variant peptide enrichment score, Grb2 SH2, mean of R1-R3): 0.9505 | Jak2 mean of log2(enrichment) ([7]; mean of log2 of enrichment over R1-R3): 0.3892 | Jak2 enrich. R1 [7, 22]: 1.336 | Jak2 enrich. R3 [7, 23]: 1.016 | Jak2 difference (mean log2 variant - mean log2 reference) [7, 25]: -0.5933 | Jak2 hit? [7, 26]: FALSE | AncSZ mean of log2(enrichment) ([8]; mean of log2 of enrichment over R1-R5): 0.1983 | AncSZ enrich. R1 [8, 22]: 0.795 | AncSZ enrich. R3 [8, 23]: 1.048 | AncSZ enrich. R4 [8, 24]: 1.095 | AncSZ enrich. R5 ([8]; pTyr-Var library, enrichment score, replicate 5): 1.306 | AncSZ difference (mean log2 variant - mean log2 reference) [8, 25]: -1.317 | AncSZ hit? [8, 26]: FALSE | difference [9, 27]: -0.4797 | mean of log2(variant) [9, 28]: 0.4103 | var. mean [9, 29]: 1.406 | Screen ([9]; sheet EPHB1, effect of the variant peptide relative to its reference peptide in the pTyr-Var library screen (enrichment scores)): -0.4797 | difference [10, 27]: -0.559 | mean of log2(variant) [10, 30]: -0.3446 | var. mean [10, 31]: 0.8886 | Hck enrich. R1 [11, 22]: 0.9181 | Hck enrich. R3 [11, 23]: 0.8034 | Hck enrich. R4 [11, 24]: 0.2649 | Hck hit? [11, 26]: FALSE | difference [12, 27]: -1.201 | mean of log2(variant) [12, 28]: 0.1586 | var. mean [12, 29]: 1.154 | difference [13, 27]: 0.05278 | mean of log2(variant) ([13]; mean of log2 enrichment of variant peptide, R1-R3): 2.054 | var. mean ([13]; variant peptide, mean of R1-R3): 4.231 | difference ([14]; SHP2-C SH2, mean of log2(variant) minus mean of log2(reference)): -0.5777 | mean of log2(variant) ([14]; SHP2-C SH2, mean of log2 enrichment of variant, R1-R3): -0.5659 | hit? ([14]; SHP2-C SH2, variant versus reference significant hit call): FALSE | var. mean ([14]; variant peptide enrichment score, SHP2-C SH2, mean of R1-R3): 0.7213 | Screen ([15]; fig5-data2, sheet "Abl", Screen for the variant/reference peptide pair, pTyr-Var library): -1.318 | c-Abl mean of log2(enrichment) [15, 21]: -0.4279 | c-Abl enrich. R1 [15, 22]: 0.51 | c-Abl enrich. R3 [15, 23]: 0.9195 | c-Abl enrich. R4 [15, 24]: 0.7727 | c-Abl hit? [15, 26]: FALSE | c-Src mean of log2(enrichment) [16, 21]: -0.6428 | c-Src enrich. R1 [16, 22]: 0.8102 | c-Src enrich. R3 [16, 23]: 0.4328 | c-Src enrich. R4 [16, 24]: 0.9633 | c-Src difference (mean log2 variant - mean log2 reference) [16, 25]: -1.034 | c-Src hit? [16, 26]: FALSE | Fes mean of log2(enrichment) ([17]; mean of log2 of enrichment over R1-R6): 0.6236 | Fes difference (mean log2 variant - mean log2 reference) [17, 25]: -0.8632 | 4G10 (mean) [18]: 1.221 | difference [19, 27]: -1.255 | mean of log2(variant) [19, 30]: 0.01497 | var. mean [19, 31]: 1.21 | difference [20, 27]: 0.5535 | mean of log2(variant) [20, 28]: 0.1669 | var. mean [20, 29]: 1.142
